# From patent US7138361B2, “Herbicidal heterocycles” (E. I. du Pont de Nemours and Company, priority 2000, dated 2006)
# Experiments:
# Type in all cases: in vivo
# [1] = system: woolly cupgrass (Eriochloa villosa); experiment: Test C preemergence; conditions: for Plant response rating, Cupgrass, Woolly: scale 0 to 100, 0 no effect, 100 complete control; for Plant response rating (0 to 100), Cupgrass, Woolly: preemergence, visual evaluation after 12 to 14 days
# Outline: (§1)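 Pre- and postemergence treatments used a non-phytotoxic solvent/surfactant formulation; post-treated plants measured 2 to 18 cm. Greenhouse hold 12–14 d; % control estimated visually relative to controls.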
# [2] = system: giant foxtail (Setaria faberii); experiment: Test C preemergence; conditions: for Plant response rating, Foxtail, Giant: scale 0 to 100, 0 no effect, 100 complete control; for Plant response rating (0 to 100), Foxtail, Giant: preemergence, visual evaluation after 12 to 14 days
# Outline: as §1
# soybean (Glycine max) = experiment: Test C preemergence; conditions: for Plant response rating, Soybean: scale 0 to 100, 0 no effect, 100 complete control
# Outline: as §1
# [3] = system: cocklebur (Xanthium strumarium); experiment: Test C preemergence; conditions: for Plant response rating, Cocklebur: scale 0 to 100, 0 no effect, 100 complete control; for Plant response rating (0 to 100), Cocklebur: preemergence, visual evaluation after 12 to 14 days
# Outline: as §1
# [4] = system: johnsongrass (Sorghum halepense); experiment: Test C preemergence; conditions: for Plant response rating, Johnsongrass: scale 0 to 100, 0 no effect, 100 complete control; for Plant response rating (0 to 100), Johnsongrass: preemergence, visual evaluation after 12 to 14 days
# Outline: as §1
# [5] = system: morningglory (Ipomoea hederacea); experiment: Test C preemergence; conditions: for Plant response rating, Morningglory: scale 0 to 100, 0 no effect, 100 complete control
# Outline: as §1
# [6] = system: lambsquarters (Chenopodium album); experiment: Test C preemergence; conditions: for Plant response rating, Lambsquarters: scale 0 to 100, 0 no effect, 100 complete control
# Outline: as §1
# [7] = system: velvetleaf (Abutilon theophrasti); experiment: Test C preemergence; conditions: for Plant response rating, Velvetleaf: scale 0 to 100, 0 no effect, 100 complete control
# Outline: as §1
# corn (Zea mays) = experiment: Test C preemergence; conditions: for Plant response rating, Corn: scale 0 to 100, 0 no effect, 100 complete control; for Plant response rating (0 to 100), Corn: preemergence, visual evaluation after 12 to 14 days
# Outline: as §1
# [8] = system: pigweed (Amaranthus retroflexus); experiment: Test C preemergence; conditions: for Plant response rating, Pigweed: scale 0 to 100, 0 no effect, 100 complete control
# Outline: as §1
# [9] = system: yellow nutsedge (Cyperus esculentus); experiment: Test C preemergence; conditions: for Plant response rating, Nutsedge: scale 0 to 100, 0 no effect, 100 complete control
# Outline: as §1
# kochia (Kochia scoparia) = experiment: Test C preemergence; conditions: for Plant response rating, Kochia: scale 0 to 100, 0 no effect, 100 complete control; for Plant response rating (0 to 100), Kochia: preemergence, visual evaluation after 12 to 14 days
# Outline: as §1
# [10] = system: goosegrass (Eleusine indica); experiment: Test C preemergence; conditions: for Plant response rating, Goosegrass: scale 0 to 100, 0 no effect, 100 complete control; for Plant response rating (0 to 100), Goosegrass: preemergence, visual evaluation after 12 to 14 days
# Outline: as §1
# [11] = system: crabgrass (Digitaria sanguinalis); experiment: Test C preemergence; conditions: for Plant response rating, Crabgrass: scale 0 to 100, 0 no effect, 100 complete control; for Plant response rating (0 to 100), Crabgrass: preemergence, visual evaluation after 12 to 14 days
# Outline: as §1
# [12] = system: common ragweed (Ambrosia elatior); experiment: Test C preemergence; conditions: for Plant response rating, Ragweed, Common: scale 0 to 100, 0 no effect, 100 complete control
# Outline: as §1
# [13] = system: bermudagrass (Cynodon dactylon); experiment: Test C preemergence; conditions: for Plant response rating, Bermudagrass: scale 0 to 100, 0 no effect, 100 complete control; for Plant response rating (0 to 100 where 0 is no effect and 100 is complete control), Bermudagrass: preemergence, visual evaluation after 12 to 14 days
# Outline: as §1
# Nightshade = experiment: Test C preemergence; conditions: scale 0 to 100, 0 no effect, 100 complete control
# Sunflower [14] = experiment: Test C preemergence; conditions: Rate 125 g/ha; scale 0 to 100, 0 no effect, 100 complete control
# [15] = system: Surinam grass (Brachiaria decumbens); experiment: Test C preemergence; conditions: for Plant response rating, Surinam grass: scale 0 to 100, 0 no effect, 100 complete control; for Plant response rating (0 to 100), Surinam grass: preemergence, visual evaluation after 12 to 14 days
# Outline: as §1
# Sunflower [16] = experiment: Test C preemergence; conditions: Rate 500 g/ha, visual evaluation after 12 to 14 days
# rice (Oryza saliva) = experiment: Test C flooded paddy test; conditions: for Rice plant response rating: Flooded Paddy, scale 0 to 100, 0 no effect, 100 complete control; for Plant response rating, Rice: flooded paddy test, scale 0 to 100 (0 no effect, 100 complete control)
# Outline: (§2)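 Visual ratings (0 = no effect, 100 = complete control) were made 12–14 days after treatment, relative to greenhouse controls. Plants in the flooded paddy test were rice, smallflower flatsedge, duck salad and barnyardgrass, treated at the 2-leaf stage.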
# [17] = system: barnyardgrass (Echinochloa crus-galli); experiment: Test C flooded paddy test; conditions: for Barnyardgrass plant response rating: Flooded Paddy, scale 0 to 100, 0 no effect, 100 complete control; for Plant response rating, Barnyardgrass: flooded paddy test, scale 0 to 100 (0 no effect, 100 complete control)
# Outline: as §2
# [18] = preemergence, Rate 500 g/ha, visual evaluation after 12 to 14 days
smiles,measurement,setting,value
CCC(C)c1ccn(C2CCN(c3cccc(OC(C)C)c3)C2=O)n1 (centres unmarked) [Compound 83],"Plant response rating, Cupgrass, Woolly",[1]; Rate 62 g/ha,80
same,"Plant response rating, Cupgrass, Woolly",[1]; Rate 125 g/ha,90
same,"Plant response rating (0 to 100), Cupgrass, Woolly",[1]; Rate 250 g/ha,100
same,"Plant response rating (0 to 100), Cupgrass, Woolly",[1]; Rate 500 g/ha,100
same,"Plant response rating, Foxtail, Giant",[2]; Rate 62 g/ha,0
same,"Plant response rating, Foxtail, Giant",[2]; Rate 125 g/ha,100
same,"Plant response rating (0 to 100), Foxtail, Giant",[2]; Rate 250 g/ha,60
same,"Plant response rating (0 to 100), Foxtail, Giant",[2]; Rate 500 g/ha,0
same,"Plant response rating, Soybean",soybean (Glycine max); Rate 125 g/ha,0
same,"Plant response rating (0 to 100), Soybean",soybean (Glycine max); [18],10
same,"Plant response rating, Soybean","soybean (Glycine max); preemergence, Rate 250 g/ha",0
same,"Plant response rating, Cocklebur",[3]; Rate 62 g/ha,0
same,"Plant response rating, Cocklebur",[3]; Rate 125 g/ha,0
same,"Plant response rating (0 to 100), Cocklebur",[3]; Rate 250 g/ha,30
same,"Plant response rating (0 to 100), Cocklebur",[3]; Rate 500 g/ha,0
same,"Plant response rating, Johnsongrass",[4]; Rate 62 g/ha,20
same,"Plant response rating, Johnsongrass",[4]; Rate 125 g/ha,30
same,"Plant response rating (0 to 100), Johnsongrass",[4]; Rate 250 g/ha,30
same,"Plant response rating (0 to 100), Johnsongrass",[4]; Rate 500 g/ha,30
same,"Plant response rating, Morningglory",[5]; Rate 62 g/ha,0
same,"Plant response rating, Morningglory",[5]; Rate 125 g/ha,0
same,"Plant response rating (0 to 100), Morningglory",[5]; [18],0
same,"Plant response rating, Morningglory","[5]; preemergence, Rate 250 g/ha",0
same,"Plant response rating, Lambsquarters",[6]; Rate 62 g/ha,100
same,"Plant response rating, Lambsquarters",[6]; Rate 125 g/ha,100
same,"Plant response rating (0 to 100), Lambsquarters",[6]; [18],100
same,"Plant response rating, Lambsquarters","[6]; preemergence, Rate 250 g/ha",100
same,"Plant response rating, Velvetleaf",[7]; Rate 125 g/ha,30
same,"Plant response rating (0 to 100), Velvetleaf",[7]; [18],40
same,"Plant response rating, Velvetleaf","[7]; preemergence, Rate 250 g/ha",0
same,"Plant response rating, Corn",corn (Zea mays); Rate 62 g/ha,0
same,"Plant response rating, Corn",corn (Zea mays); Rate 125 g/ha,0
same,"Plant response rating (0 to 100), Corn",corn (Zea mays); Rate 250 g/ha,0
same,"Plant response rating (0 to 100), Corn",corn (Zea mays); Rate 500 g/ha,10
same,"Plant response rating, Pigweed",[8]; Rate 125 g/ha,50
same,"Plant response rating (0 to 100), Pigweed",[8]; [18],100
same,"Plant response rating, Pigweed","[8]; preemergence, Rate 250 g/ha",100
same,"Plant response rating, Nutsedge",[9]; Rate 62 g/ha,0
same,"Plant response rating, Nutsedge",[9]; Rate 125 g/ha,0
same,"Plant response rating (0 to 100), Nutsedge",[9]; [18],0
same,"Plant response rating, Nutsedge","[9]; preemergence, Rate 250 g/ha",0
same,"Plant response rating, Kochia",kochia (Kochia scoparia); Rate 62 g/ha,60
same,"Plant response rating, Kochia",kochia (Kochia scoparia); Rate 125 g/ha,90
same,"Plant response rating (0 to 100), Kochia",kochia (Kochia scoparia); Rate 250 g/ha,90
same,"Plant response rating (0 to 100), Kochia",kochia (Kochia scoparia); Rate 500 g/ha,100
same,"Plant response rating, Goosegrass",[10]; Rate 62 g/ha,100
same,"Plant response rating, Goosegrass",[10]; Rate 125 g/ha,100
same,"Plant response rating (0 to 100), Goosegrass",[10]; Rate 250 g/ha,100
same,"Plant response rating (0 to 100), Goosegrass",[10]; Rate 500 g/ha,100
same,"Plant response rating, Crabgrass",[11]; Rate 62 g/ha,100
same,"Plant response rating, Crabgrass",[11]; Rate 125 g/ha,100
same,"Plant response rating (0 to 100), Crabgrass",[11]; Rate 250 g/ha,100
same,"Plant response rating (0 to 100), Crabgrass",[11]; Rate 500 g/ha,100
same,"Plant response rating, Ragweed, Common",[12]; Rate 125 g/ha,0
same,"Plant response rating (0 to 100), Ragweed, Common",[12]; [18],100
same,"Plant response rating, Ragweed, Common","[12]; preemergence, Rate 250 g/ha",0
same,"Plant response rating, Bermudagrass",[13]; Rate 62 g/ha,100
same,"Plant response rating, Bermudagrass",[13]; Rate 125 g/ha,100
same,"Plant response rating (0 to 100 where 0 is no effect and 100 is complete control), Bermudagrass",[13]; Rate 250 g/ha,100
same,"Plant response rating (0 to 100 where 0 is no effect and 100 is complete control), Bermudagrass",[13]; Rate 500 g/ha,100
same,"Plant response rating, Nightshade",Nightshade; Rate 62 g/ha,0
same,"Plant response rating, Nightshade",Nightshade; Rate 125 g/ha,50
same,"Plant response rating, Nightshade",Nightshade; Rate 250 g/ha,60
same,"Plant response rating, Sunflower",Sunflower [14],30
same,"Plant response rating, Surinam grass",[15]; Rate 62 g/ha,40
same,"Plant response rating, Surinam grass",[15]; Rate 125 g/ha,50
same,"Plant response rating (0 to 100), Surinam grass",[15]; Rate 250 g/ha,90
same,"Plant response rating (0 to 100), Surinam grass",[15]; Rate 500 g/ha,100
same,"Plant response rating (0 to 100), Sunflower",Sunflower [16],70
same,Rice plant response rating,rice (Oryza saliva); Rate 250 g/ha,70
same,Rice plant response rating,rice (Oryza saliva); Rate 500 g/ha,80
same,"Plant response rating, Rice",rice (Oryza saliva); Rate 62 g/ha,20
same,"Plant response rating, Rice",rice (Oryza saliva); Rate 125 g/ha,20
same,Barnyardgrass plant response rating,[17]; Rate 250 g/ha,70
same,Barnyardgrass plant response rating,[17]; Rate 500 g/ha,100
same,"Plant response rating, Barnyardgrass",[17]; Rate 62 g/ha,60
same,"Plant response rating, Barnyardgrass",[17]; Rate 125 g/ha,70
